We go through seven cell lines from the supplement of paper PMC10307832.

What all share (experiment): relative viability (nuclei count vs DMSO), 5 days (fraction); higher = more cells survive
Compound in the assay “Everolimus + Palbociclib”: CO[C@H]1C[C@@H]2CC[C@@H](C)[C@@](O)(O2)C(=O)C(=O)N2CCCC[C@H]2C(=O)O[C@H]([C@H](C)C[C@@H]2CC[C@@H](OCCO)[C@H](OC)C2)CC(=O)[C@H](C)/C=C(\C)[C@@H](O)[C@@H](OC)C(=O)[C@H](C)C[C@H](C)/C=C/C=C/C=C/1C [Everolimus] + CC(=O)c1c(C)c2cnc(Nc3ccc(N4CCNCC4)cn3)nc2n(C2CCCC2)c1=O [Palbociclib] (partner 0.5 µM)
The gist of the method:
(§1)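 After 5 days of treatment, lung cancer cells in 1536-well plates were fixed and stained in a single step (final 0.05% Triton X-100, 1% formaldehyde, 1 ug/ml Hoechst) and their nuclei counted on 4× images. Treatment had been applied by pin tool the day after seeding as one drug alone or as a fixed anchor-drug dose with five library-drug doses (not always all listed) in √10 steps. Relative viability is the nuclei count of treated wells divided by that of vehicle wells, and values are medians of duplicate plates.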

Compound in the assay “Everolimus + Pictilisib”: CO[C@H]1C[C@@H]2CC[C@@H](C)[C@@](O)(O2)C(=O)C(=O)N2CCCC[C@H]2C(=O)O[C@H]([C@H](C)C[C@@H]2CC[C@@H](OCCO)[C@H](OC)C2)CC(=O)[C@H](C)/C=C(\C)[C@@H](O)[C@@H](OC)C(=O)[C@H](C)C[C@H](C)/C=C/C=C/C=C/1C [Everolimus] + CS(=O)(=O)N1CCN(Cc2cc3nc(-c4cccc5[nH]ncc45)nc(N4CCOCC4)c3s2)CC1 [Pictilisib] (partner 1 µM)
The gist of the method: as §1

Compound in the assay “Everolimus + Phenformin”: CO[C@H]1C[C@@H]2CC[C@@H](C)[C@@](O)(O2)C(=O)C(=O)N2CCCC[C@H]2C(=O)O[C@H]([C@H](C)C[C@@H]2CC[C@@H](OCCO)[C@H](OC)C2)CC(=O)[C@H](C)/C=C(\C)[C@@H](O)[C@@H](OC)C(=O)[C@H](C)C[C@H](C)/C=C/C=C/C=C/1C [Everolimus] + N=C(N)NC(=N)NCCc1ccccc1 [Phenformin] (partner 250 µM)
The gist of the method: as §1

Compound in the assay “Everolimus + Decitabine”: CO[C@H]1C[C@@H]2CC[C@@H](C)[C@@](O)(O2)C(=O)C(=O)N2CCCC[C@H]2C(=O)O[C@H]([C@H](C)C[C@@H]2CC[C@@H](OCCO)[C@H](OC)C2)CC(=O)[C@H](C)/C=C(\C)[C@@H](O)[C@@H](OC)C(=O)[C@H](C)C[C@H](C)/C=C/C=C/C=C/1C [Everolimus] + Nc1ncn([C@H]2C[C@H](O)[C@@H](CO)O2)c(=O)n1 [Decitabine] (partner 2 µM)
The gist of the method:
as §1

In the case of NCI-H2126, the relative viability is 0.384 with Everolimus + Palbociclib (first compound 0.01 µM); 0.314 with Everolimus + Palbociclib (first compound 0.03162 µM); 0.325 with Everolimus + Palbociclib (first compound 0.1 µM); 0.338 with Everolimus + Palbociclib (first compound 0.3162 µM); 0.345 with Everolimus + Palbociclib (first compound 1 µM); 0.373 with Everolimus + Pictilisib (first compound 0.01 µM). Besides, the relative viability with Everolimus + Pictilisib (first compound 0.03162 µM) came out at 0.34; with Everolimus + Pictilisib (first compound 0.1 µM), 0.359; with Everolimus + Pictilisib (first compound 0.3162 µM), 0.392; in the assay with Everolimus + Pictilisib (first compound 1 µM), 0.409; in the assay with Everolimus + Phenformin (first compound 0.01 µM) it was 0.485; with Everolimus + Phenformin (first compound 0.03162 µM) it was 0.45. For the same cell line, the relative viability with Everolimus + Phenformin (first compound 0.1 µM) came to 0.41; in the assay with Everolimus + Phenformin (first compound 0.3162 µM), 0.48; in the assay with Everolimus + Phenformin (first compound 1 µM), 0.455; with Everolimus + Decitabine (first compound 0.01 µM), 0.484; in the assay with Everolimus + Decitabine (first compound 0.03162 µM), 0.421; with Everolimus + Decitabine (first compound 0.1 µM), 0.452. The relative viability amounted to 0.505 with Everolimus + Decitabine (first compound 0.3162 µM) and 0.497 in the assay with Everolimus + Decitabine (first compound 1 µM).

As to LXF-289, the relative viability with Everolimus + Palbociclib (first compound 0.01 µM) was 0.583; with Everolimus + Palbociclib (first compound 0.03162 µM), 0.542; with Everolimus + Palbociclib (first compound 0.1 µM), 0.504; in the assay with Everolimus + Palbociclib (first compound 0.3162 µM) it was 0.504; with Everolimus + Palbociclib (first compound 1 µM) it was 0.476; with Everolimus + Pictilisib (first compound 0.01 µM), 0.579. The relative viability amounted to 0.624 with Everolimus + Pictilisib (first compound 0.03162 µM); 0.513 in the assay with Everolimus + Pictilisib (first compound 0.1 µM); 0.555 with Everolimus + Pictilisib (first compound 0.3162 µM); 0.509 in the assay with Everolimus + Pictilisib (first compound 1 µM); 0.526 with Everolimus + Phenformin (first compound 0.01 µM); 0.541 in the assay with Everolimus + Phenformin (first compound 0.03162 µM). Also, the relative viability is 0.507 with Everolimus + Phenformin (first compound 0.1 µM); 0.574 in the assay with Everolimus + Phenformin (first compound 0.3162 µM); 0.512 with Everolimus + Phenformin (first compound 1 µM); 0.358 with Everolimus + Decitabine (first compound 0.01 µM); 0.359 with Everolimus + Decitabine (first compound 0.03162 µM); 0.306 with Everolimus + Decitabine (first compound 0.1 µM). Moreover, the relative viability in the assay with Everolimus + Decitabine (first compound 0.3162 µM) was 0.38; with Everolimus + Decitabine (first compound 1 µM), 0.411.

As to HCC-44, the relative viability with Everolimus + Palbociclib (first compound 0.01 µM) came out at 1.01; in the assay with Everolimus + Palbociclib (first compound 0.03162 µM), 1; in the assay with Everolimus + Palbociclib (first compound 0.1 µM), 0.997; with Everolimus + Palbociclib (first compound 0.3162 µM), 1.07; with Everolimus + Palbociclib (first compound 1 µM) it was 1.1; with Everolimus + Pictilisib (first compound 0.01 µM) it was 0.429. The relative viability came out at 0.427 with Everolimus + Pictilisib (first compound 0.03162 µM); 0.309 with Everolimus + Pictilisib (first compound 0.1 µM); 0.55 with Everolimus + Pictilisib (first compound 0.3162 µM); 0.323 with Everolimus + Pictilisib (first compound 1 µM); 0.195 in the assay with Everolimus + Phenformin (first compound 0.01 µM); 0.125 in the assay with Everolimus + Phenformin (first compound 0.03162 µM). Further, the relative viability amounted to 0.127 with Everolimus + Phenformin (first compound 0.1 µM); 0.178 in the assay with Everolimus + Phenformin (first compound 0.3162 µM); 0.168 with Everolimus + Phenformin (first compound 1 µM); 0.933 with Everolimus + Decitabine (first compound 0.01 µM); 0.975 with Everolimus + Decitabine (first compound 0.03162 µM); 0.937 with Everolimus + Decitabine (first compound 0.1 µM). The relative viability worked out at 0.954 in the assay with Everolimus + Decitabine (first compound 0.3162 µM) and 0.896 with Everolimus + Decitabine (first compound 1 µM).

Take PC-14: the relative viability was 0.43 in the assay with Everolimus + Palbociclib (first compound 0.01 µM); 0.368 with Everolimus + Palbociclib (first compound 0.03162 µM); 0.336 with Everolimus + Palbociclib (first compound 0.1 µM); 0.301 with Everolimus + Palbociclib (first compound 0.3162 µM); 0.295 with Everolimus + Palbociclib (first compound 1 µM); 0.411 in the assay with Everolimus + Pictilisib (first compound 0.01 µM). The relative viability amounted to 0.191 in the assay with Everolimus + Pictilisib (first compound 0.03162 µM); 0.239 with Everolimus + Pictilisib (first compound 0.1 µM); 0.21 with Everolimus + Pictilisib (first compound 0.3162 µM); 0.342 with Everolimus + Pictilisib (first compound 1 µM); 0.443 with Everolimus + Phenformin (first compound 0.01 µM); 0.369 with Everolimus + Phenformin (first compound 0.03162 µM). For the same cell line, the relative viability was 0.459 in the assay with Everolimus + Phenformin (first compound 0.1 µM); 0.32 with Everolimus + Phenformin (first compound 0.3162 µM); 0.488 with Everolimus + Phenformin (first compound 1 µM); 0.276 with Everolimus + Decitabine (first compound 0.01 µM); 0.26 with Everolimus + Decitabine (first compound 0.03162 µM); 0.235 in the assay with Everolimus + Decitabine (first compound 0.1 µM). Also, the figures for the relative viability with Everolimus + Decitabine (first compound 0.3162 µM) and with Everolimus + Decitabine (first compound 1 µM) were 0.296 and 0.293, respectively.

Take HOP-62: the relative viability with Everolimus + Palbociclib (first compound 0.01 µM) was 0.418; with Everolimus + Palbociclib (first compound 0.03162 µM) it was 0.304; with Everolimus + Palbociclib (first compound 0.1 µM), 0.268; with Everolimus + Palbociclib (first compound 0.3162 µM) it was 0.294; in the assay with Everolimus + Palbociclib (first compound 1 µM), 0.268; with Everolimus + Pictilisib (first compound 0.01 µM), 0.326. For the same cell line, the relative viability turned out to be 0.274 with Everolimus + Pictilisib (first compound 0.03162 µM); 0.17 with Everolimus + Pictilisib (first compound 0.1 µM); 0.267 with Everolimus + Pictilisib (first compound 0.3162 µM); 0.352 in the assay with Everolimus + Pictilisib (first compound 1 µM); 0.583 in the assay with Everolimus + Phenformin (first compound 0.01 µM); 0.579 with Everolimus + Phenformin (first compound 0.03162 µM). Also, the relative viability with Everolimus + Phenformin (first compound 0.1 µM) came out at 0.495; with Everolimus + Phenformin (first compound 0.3162 µM) it was 0.513; in the assay with Everolimus + Phenformin (first compound 1 µM) it was 0.535; with Everolimus + Decitabine (first compound 0.01 µM) it was 0.223; in the assay with Everolimus + Decitabine (first compound 0.03162 µM), 0.278; in the assay with Everolimus + Decitabine (first compound 0.1 µM), 0.195. For the same cell line, the relative viability in the assay with Everolimus + Decitabine (first compound 0.3162 µM) came out at 0.251; with Everolimus + Decitabine (first compound 1 µM), 0.321.

Take NCI-H358: the relative viability in the assay with Everolimus + Palbociclib (first compound 0.01 µM) is 0.136; in the assay with Everolimus + Palbociclib (first compound 0.03162 µM), 0.15; with Everolimus + Palbociclib (first compound 0.1 µM), 0.129; with Everolimus + Palbociclib (first compound 0.3162 µM) it was 0.11; with Everolimus + Palbociclib (first compound 1 µM), 0.128; with Everolimus + Pictilisib (first compound 0.01 µM) it was 0.257. Moreover, the relative viability turned out to be 0.241 in the assay with Everolimus + Pictilisib (first compound 0.03162 µM); 0.213 with Everolimus + Pictilisib (first compound 0.1 µM); 0.257 in the assay with Everolimus + Pictilisib (first compound 0.3162 µM); 0.213 with Everolimus + Pictilisib (first compound 1 µM); 0.208 in the assay with Everolimus + Phenformin (first compound 0.01 µM); 0.25 with Everolimus + Phenformin (first compound 0.03162 µM). Further, the relative viability came out at 0.227 in the assay with Everolimus + Phenformin (first compound 0.1 µM); 0.234 in the assay with Everolimus + Phenformin (first compound 0.3162 µM); 0.298 with Everolimus + Phenformin (first compound 1 µM); 0.204 with Everolimus + Decitabine (first compound 0.01 µM); 0.195 in the assay with Everolimus + Decitabine (first compound 0.03162 µM); 0.218 with Everolimus + Decitabine (first compound 0.1 µM). In addition, the relative viability with Everolimus + Decitabine (first compound 0.3162 µM) is 0.19; with Everolimus + Decitabine (first compound 1 µM) it was 0.205.

Turning to SK-MES-1, the relative viability with Everolimus + Palbociclib (first compound 0.01 µM) stood at 0.239; with Everolimus + Palbociclib (first compound 0.03162 µM), 0.264; with Everolimus + Palbociclib (first compound 0.1 µM), 0.258; with Everolimus + Palbociclib (first compound 0.3162 µM), 0.273; with Everolimus + Palbociclib (first compound 1 µM), 0.243; with Everolimus + Pictilisib (first compound 0.01 µM), 0.281. Further, the relative viability was found to be 0.243 in the assay with Everolimus + Pictilisib (first compound 0.03162 µM); 0.265 with Everolimus + Pictilisib (first compound 0.1 µM); 0.236 with Everolimus + Pictilisib (first compound 0.3162 µM); 0.215 with Everolimus + Pictilisib (first compound 1 µM); 0.55 with Everolimus + Phenformin (first compound 0.01 µM); 0.583 with Everolimus + Phenformin (first compound 0.03162 µM). In addition, the relative viability with Everolimus + Phenformin (first compound 0.1 µM) amounted to 0.574; with Everolimus + Phenformin (first compound 0.3162 µM), 0.552; with Everolimus + Phenformin (first compound 1 µM), 0.545; with Everolimus + Decitabine (first compound 0.01 µM) it was 0.346; with Everolimus + Decitabine (first compound 0.03162 µM), 0.362; with Everolimus + Decitabine (first compound 0.1 µM), 0.335. The values for the relative viability in the assay with Everolimus + Decitabine (first compound 0.3162 µM) and with Everolimus + Decitabine (first compound 1 µM) were 0.345 and 0.501, respectively.
